Data from patent US6951889B2, “2-amino-2-alkyl-5 heptenoic and heptynoic acid derivatives useful as nitric oxide synthase inhibitors” (Pharmacia Corporation, priority 2000, dated 2005).
pIC50: −log10 of the molar value.

Tests used:
[1] = tested on: nitrite production in human cartilage explants induced with recombinant human IL-1β; experiment: Human cartilage explant assay; type: cell-based; settings: six concentrations of inhibitor, read-out: IC50 inhibition of nitrite production
Description: Bone pieces are rinsed twice with Dulbecco's Phosphate Buffered Saline (GibcoBRL) and once with Dulbecco's Modified Eagles Medium (GibcoBRL) and placed into a petri dish with phenol red free Minimum Essential Medium (MEM) (GibcoBRL). Cartilage was cut into small explants of approximately 15-45 mg in weight and one or two explants per well are placed into either 96 or 48 well culture plates with 200-500 μL of culture media per well. The culture media was either a custom modification of Minimum Essential Medium(Eagle) with Earle's salts (GibcoBRL) prepared without L-Arginine, without L-Glutamine and without phenol red or a custom modification of serumless Neuman and Tytell (GibcoBRL) medium prepared without L-arginine, without insulin, without ascorbic acid, without L-glutamine and without phenol red. […]
The day old supernatant is then discarded and replaced with fresh culture media containing recombinant human IL-1β and compound and incubated for another 20-24 hours. This supernatant is analyzed for nitrite with a fluorometric assay (Misko et al, Anal. Biochem., 214, 11-16, 1993). […] IC50 values (Table III) are determined from plotting the percent inhibition of nitrite production at six different concentrations of inhibitor.

[2] = tested on: LPS-induced increase in plasma nitrite/nitrate levels; experiment: In vivo assay in endotoxin-treated rats; settings: Rattus norvegicus, po, administered orally 0.5-1 hours prior to LPS, plasma nitrite/nitrate 5 hours following LPS, read-out: ED50 for inhibition of the LPS-induced increase in plasma nitrite/nitrate levels
Description: Compounds are administered orally 0.5-1 hours prior to LPS administration and plasma nitrite/nitrate levels are determined 5 hours following LPS administration.

Row | Compound | pIC50 [1] | ED50 [2]
1 | CC(=N)NC/C=C\CC[C@](C)(N)C(=O)O.Cl.Cl [Example 14, (2S,5Z)-2-amino-2-methyl-7-[(1-iminoethyl)amino]-5-heptenoic acid, Dihydrochloride] | 6.10 | 0.3 mg/kg
2 | CC(=N)NC/C(F)=C\CC[C@](C)(N)C(=O)O.Cl.Cl [Example 1, (2S,5E)-2-amino-2-methyl-6-fluoro-7-[(1-iminoethyl)amino]-5-heptenoic acid, Dihydrochloride] | 6.40 | 0.4 mg/kg
